According to US20250049798A1, “WEE1 PROTEIN KINASE DEGRADATION AGENT AND USE THEREOF” (HANGZHOU GLUBIO PHARMACEUTICAL CO. LTD., priority 2021, published 2025):
Like-named read-outs stand apart in the source and are kept apart here.

Key:
HiBiT tagged Wee1 = HiBiT tagged Wee1 (Homo sapiens, UniProt P30291); experiment: Wee1 protein degradation assay (HiBiT assay); format: cell-based; details: engineered HT-1080 cells, 20 hours; for Dmax: maximum percentage of Wee1 degradation, read-out: HiBiT Wee1: Dmax
Sequence of HiBiT tagged Wee1 (P30291 whole entry): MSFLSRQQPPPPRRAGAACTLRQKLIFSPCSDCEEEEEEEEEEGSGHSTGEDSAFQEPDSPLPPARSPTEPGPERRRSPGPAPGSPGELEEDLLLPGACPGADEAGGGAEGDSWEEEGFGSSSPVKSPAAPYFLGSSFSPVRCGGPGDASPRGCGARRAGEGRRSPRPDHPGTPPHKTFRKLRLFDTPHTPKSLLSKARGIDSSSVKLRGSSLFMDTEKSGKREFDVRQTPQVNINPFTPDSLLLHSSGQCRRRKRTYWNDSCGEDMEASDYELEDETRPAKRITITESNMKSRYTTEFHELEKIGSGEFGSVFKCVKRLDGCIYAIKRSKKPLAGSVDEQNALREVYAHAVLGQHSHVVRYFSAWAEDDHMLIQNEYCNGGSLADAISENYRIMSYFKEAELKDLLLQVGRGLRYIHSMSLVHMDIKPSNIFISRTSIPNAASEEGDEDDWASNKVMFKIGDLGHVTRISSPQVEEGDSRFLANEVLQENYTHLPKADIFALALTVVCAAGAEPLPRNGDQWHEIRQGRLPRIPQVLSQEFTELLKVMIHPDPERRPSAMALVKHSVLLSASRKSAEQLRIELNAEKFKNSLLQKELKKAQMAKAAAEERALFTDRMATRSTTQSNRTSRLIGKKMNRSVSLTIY

NCI-H1048 cells = experiment: NCI-H1048 cell proliferation assay (CTG assay); format: cell-based; details: 120 hours, read-out: CTG cellular assay_H1048: IC50
Experimental: NCI-H1048 Cell Proliferation Assay (CTG Assay) The following is an example of an assay that can be used to determine the anti-proliferative activity of Wee1 PROTACs in a small cell lung cancer cell line, NCI-H1048 (ATCC Cat #CRL-5853). This cell line was cultured in RPMI-1640 medium supplemented with 10% FBS. About 1,200 NCI-H1048 cells in 50 μL of culture medium were seeded into a 384-well plate (Cat #3764, Corning), pre-spotted with compounds using the Echo 650 liquid handler (Beckman). The dose-response-curve (DRC) typically has 10-points with a highest concentration at 10 μM, and half-log diluted to as low as 0.316 nM, plus a DMSO control. Assay plates were incubated at 37° C. with 5% CO2 for 120 hours. After that, 20 μL of the CellTiter-Glo (CTG) Luminescent Cell Viability Assay Reagent (Cat #G7573, Promega) was added to each well and incubated at room temperature for 30 minutes. Luminescence was then measured with Pherastar microplate reader (BMG Labtech). All percentage of cell growth inhibition curves were processed using Collaborative Drug Discovery Vault.
Cell viability reads in compound-treated wells were normalized to that of DMSO control and expressed as Percent of Control (PoC, y). A four Parameter Logistic Model was used to determine the compound's EC50 and DC50, using the following equation: […]

SMILES | DC50 (HiBiT tagged Wee1) | Dmax (HiBiT tagged Wee1) | IC50 (NCI-H1048 cells; Homo sapiens) | IC50 (NCI-H1048 cells)
Cc1cc(Nc2ncc3c(n2)N(C)CN(c2c(Cl)cccc2Cl)C3=O)ccc1C1CCN(CC2CCN(c3ccc4c(c3)C(=O)N(C3CCC(=O)NC3=O)C4=O)CC2)CC1 (centres unmarked) [Compound 16] | > 1000 nM | < 50% | > 100 nM | –
C=CCn1c(=O)c2cnc(Nc3ccc(C4CCN(CC5CCN(c6cccc7c6n(C)c(=O)n7C6CCC(=O)NC6=O)CC5)CC4)c(C)c3)nc2n1-c1cccc(C(C)(C)O)n1 (centres unmarked) [Compound 97] | – | 50 to 75% | ≤ 25 nM | –
C=CCn1c(=O)c2cnc(Nc3ccc(C4CCN(C[C@@H]5CCN(c6ccc7c(c6)C(=O)N(C6CCC(=O)NC6=O)C7=O)C5)CC4)cc3)nc2n1-c1cccc(C(C)(C)O)n1 (some centres unmarked) [Compound 37] | < 100 nM | 50 to 75% | 25 to 100 nM | –
C=CCn1c(=O)c2cnc(Nc3ccc(N4CCN(CC5CN(c6ccc7c(c6)C(=O)N(C6CCC(=O)NC6=O)C7=O)C5)CC4)cc3)nc2n1-c1cccc(C(C)(C)O)n1 (centres unmarked) [Compound 10] | < 100 nM | 50 to 75% | 25 to 100 nM | –
C=CCn1c(=O)c2cnc(Nc3ccc4c(c3)CN(CC3CCN(c5ccc6c(c5)C(=O)N(C5CCC(=O)NC5=O)C6=O)CC3)CC4)nc2n1-c1cccc(C(C)(C)O)n1 (centres unmarked) [Compound 7] | > 1000 nM | < 50% | > 100 nM | –
C=CCn1c(=O)c2cnc(Nc3ccc(C4CCN(CC5CCN(Cc6ccc7c(c6)n(C)c(=O)n7C6CCC(=O)NC6=O)CC5)CC4)cc3)nc2n1-c1cccc(C(C)(C)O)n1 (centres unmarked) [Compound 79] | < 100 nM | 50 to 75% | ≤ 25 nM | –
C=CCn1c(=O)c2cnc(Nc3ccc(N4CCN(CC5CCN(c6cc7c(cc6F)c(N6CCC(=O)NC6=O)nn7C)CC5)CC4)cc3)nc2n1-c1ccc2c(n1)[C@@](O)(CC)CC2 [Compound 161] | < 100 nM | > 75% | ≤ 25 nM | –
C=CCn1c(=O)c2cnc(Nc3ccc(C4CCN(CC5CCN(c6ccc7c(C8CCC(=O)NC8=O)nn(C)c7c6)CC5)CC4)cc3)nc2n1-c1cccc(C(C)(C)O)n1 (centres unmarked) [Compound 111] | < 100 nM | 50 to 75% | ≤ 25 nM | –
C=CCn1c(=O)c2cnc(Nc3ccc(N4CCN(CC5CCN(c6ccc7c(N8CCC(=O)NC8=O)nn(C)c7c6)CC5)CC4)cc3)nc2n1-c1cccc(C(C)(C)O)n1 [Compound 105] | < 100 nM | > 75% | ≤ 25 nM | –
C=CCn1c(=O)c2cnc(Nc3ccc(N4CCN(CC5CCN(c6ccc(NC7CCC(=O)NC7=O)cc6F)CC5)CC4)cc3)nc2n1-c1ccc2c(n1)[C@](C)(O)CC2 (single isomer, unassigned) [Compound 152-A] | < 100 nM | – | ≤ 25 nM | –
C=CCn1c(=O)c2cnc(Nc3ccc(N4CCN(CC5CCN(c6ccc(NC7CCC(=O)NC7=O)cn6)CC5)CC4)cc3)nc2n1-c1cccc(C(C)(C)O)n1 (centres unmarked) [Compound 87] | < 100 nM | > 75% | ≤ 25 nM | –
C=CCn1c(=O)c2cnc(Nc3ccc(N4CCN(CC5CCN(c6ccc7c(N8CCC(=O)NC8=O)nn(C)c7c6)CC5)CC4)c(C)c3)nc2n1-c1ccc2c(n1)[C@@](O)(CC)CC2 [Compound 129] | < 100 nM | 50 to 75% | ≤ 25 nM | –
C=CCn1c(=O)c2cnc(Nc3ccc(N4CCN(CC5CCN(c6ccc7c(N8CCC(=O)NC8=O)nn(C)c7c6)CC5)CC4)cc3)nc2n1-c1ccc2c(n1)[C@@](O)(CC)CC2 [Compound 114] | < 100 nM | > 75% | ≤ 25 nM | –
C=CCn1c(=O)c2cnc(Nc3ccc(N4CCN(CCCCc5ccc6c(c5)n(C)c(=O)n6C5CCC(=O)NC5=O)CC4)cc3)nc2n1-c1cccc(C(C)(C)O)n1 (centres unmarked) [Compound 47] | 100 to 1000 nM | 50 to 75% | ≤ 25 nM | –
C=CCn1c(=O)c2cnc(Nc3ccc(N4CCN(C5CC6(C5)CN(c5ccc(NC7CCC(=O)NC7=O)cc5F)C6)CC4)cc3)nc2n1-c1ccc2c(n1)[C@@](O)(CC)CC2 (some centres unmarked) [Compound 168] | < 100 nM | > 75% | ≤ 25 nM | –

Continued, values first:

DC50 (HiBiT tagged Wee1) | Dmax (HiBiT tagged Wee1) | IC50 (NCI-H1048 cells; Homo sapiens) | IC50 (NCI-H1048 cells) | SMILES
< 100 nM | > 75% | ≤ 25 nM | – | C=CCn1c(=O)c2cnc(Nc3ccc(N4CCN(C5CC6(C5)CN(c5ncc(NC7CCC(=O)NC7=O)cc5F)C6)CC4)cc3)nc2n1-c1ccc2c(n1)[C@@](O)(CC)CC2 (some centres unmarked) [Compound 185]
< 100 nM | 50 to 75% | 25 to 100 nM | – | C=CCn1c(=O)c2cnc(Nc3ccc(N4CCC(CN5CCC(c6cccc7c6n(C)c(=O)n7C6CCC(=O)NC6=O)CC5)CC4)cc3)nc2n1-c1ccc2c(n1)[C@@](O)(CC)CC2 (some centres unmarked) [Compound 54]
< 100 nM | > 75% | ≤ 25 nM | – | C=CCn1c(=O)c2cnc(Nc3ccc(N4C[C@@H](C)N(CC5CCN(c6ccc(NC7CCC(=O)NC7=O)cc6F)CC5)[C@@H](C)C4)cc3)nc2n1-c1ccc2c(n1)[C@@](O)(CC)CC2 (some centres unmarked) [Compound 169]
< 100 nM | – | ≤ 25 nM | – | C=CCn1c(=O)c2cnc(Nc3ccc(N4CCN(C5CCN(c6ccc(NC7CCC(=O)NC7=O)cc6F)CC5)CC4)cc3)nc2n1-c1ccc2c(n1)[C@@](O)(CC)CC2 (some centres unmarked) [Compound 157]
< 100 nM | > 75% | ≤ 25 nM | – | C=CCn1c(=O)c2cnc(Nc3ccc(N4CC5(CC(N6CCN(c7ccc(NC8CCC(=O)NC8=O)cc7F)CC6)C5)C4)cc3)nc2n1-c1ccc2c(n1)[C@@](O)(CC)CC2 (some centres unmarked) [Compound 173]
< 100 nM | > 75% | ≤ 25 nM | – | C=CCn1c(=O)c2cnc(Nc3ccc(N4CCN(CC5CCN(c6cccc7c(C8CCC(=O)NC8=O)nn(C)c67)CC5)CC4)cc3)nc2n1-c1cccc(C(C)(C)O)n1 (centres unmarked) [Compound 117]
< 100 nM | > 75% | ≤ 25 nM | – | C=CCn1c(=O)c2cnc(Nc3ccc(N4CCN(CC5CCN(c6ccc(NC7CCC(=O)NC7=O)cc6F)CC5)[C@H](C)C4)cc3)nc2n1-c1ccc2c(n1)[C@@](O)(CC)CC2 (some centres unmarked) [Compound 163]
< 100 nM | > 75% | ≤ 25 nM | – | C=CCn1c(=O)c2cnc(Nc3ccc(N4CCN(CC5CCN(c6cc7c(cc6F)c(N6CCC(=O)NC6=O)nn7C)CC5)CC4)nc3)nc2n1-c1ccc2c(n1)[C@@](O)(CC)CC2 [Compound 194]
< 100 nM | > 75% | ≤ 25 nM | – | C=CCn1c(=O)c2cnc(Nc3ccc(N4CCN(CC5CCN(c6ccc7c(N8CCC(=O)NC8=O)nn(C)c7c6)CC5)CC4)c(C)c3)nc2n1-c1ccc2c(n1)[C@](C)(O)CC2 [Compound 137]
< 100 nM | > 75% | ≤ 25 nM | – | C=CCn1c(=O)c2cnc(Nc3ccc(N4CCC(CN5CCN(c6ccc(NC7CCC(=O)NC7=O)cc6F)CC5)CC4)cc3)nc2n1-c1ccc2c(n1)[C@@](C)(O)CC2 (single isomer, unassigned) [Compound 121]
< 100 nM | > 75% | 25 to 100 nM | – | CC(C)n1c(=O)c2cnc(Nc3ccc(N4CCN(CC5CCN(c6ccc(NC7CCC(=O)NC7=O)cc6F)CC5)CC4)cc3)nc2n1-c1cccc(C(C)(C)F)n1 (centres unmarked) [Compound 199]
< 100 nM | > 75% | ≤ 25 nM | – | C=CCn1c(=O)c2cnc(Nc3ccc(N4CC5(CCN(C6CN(c7ccc(NC8CCC(=O)NC8=O)cc7F)C6)CC5)C4)cc3)nc2n1-c1ccc2c(n1)[C@@](O)(CC)CC2 (some centres unmarked) [Compound 179]
< 100 nM | 50 to 75% | ≤ 25 nM | – | C=CCn1c(=O)c2cnc(Nc3ccc(N4CCC(CN5CCC(c6ccc7c(C8CCC(=O)NC8=O)nn(C)c7c6)CC5)CC4)cc3)nc2n1-c1cccc(C(C)(C)O)n1 (centres unmarked) [Compound 96]
< 100 nM | > 75% | ≤ 25 nM | – | C=CCn1c(=O)c2cnc(Nc3ccc(N4CCC(CN5CCC(c6ccc(NC7CCC(=O)NC7=O)cc6C(F)(F)F)CC5)CC4)cc3)nc2n1-c1cccc(C(C)(C)O)n1 (centres unmarked) [Compound 80]
< 100 nM | – | – | ≤ 25 nM | C=CCn1c(=O)c2cnc(Nc3ccc(N4CCC(CN5CCN(c6ccc(NC7CCC(=O)NC7=O)cc6F)CC5)CC4)cc3)nc2n1-c1cccc(C(C)(C)O)n1 (single isomer, unassigned) [Compound 100-B]
< 100 nM | > 75% | ≤ 25 nM | – | C=CCn1c(=O)c2cnc(Nc3ccc(N4CCC(N5CCN(c6ccc(NC7CCC(=O)NC7=O)cc6F)CC5)CC4)cc3)nc2n1-c1cccc(C(C)(C)O)n1 (centres unmarked) [Compound 67]
< 100 nM | > 75% | ≤ 25 nM | – | C=CCn1c(=O)c2cnc(Nc3ccc(N4CCN(CC5CCN(c6ncc(NC7CCC(=O)NC7=O)cc6F)CC5)[C@H](C)C4)cc3)nc2n1-c1ccc2c(n1)[C@@](O)(CC)CC2 (some centres unmarked) [Compound 193]
< 100 nM | 50 to 75% | 25 to 100 nM | – | O=C1CCC(N2C(=O)c3ccc(N4CCC(CN5CCC(c6ccc(Nc7ncc8c(=O)n(-c9c(Cl)cccc9Cl)c9nccn9c8n7)cc6)CC5)CC4)cc3C2=O)C(=O)N1 (centres unmarked) [Compound 14]
< 100 nM | > 75% | ≤ 25 nM | – | C=CCn1c(=O)c2cnc(Nc3ccc(N4CCC(N5CC6(CN(c7ccc(NC8CCC(=O)NC8=O)cc7F)C6)C5)CC4)cc3)nc2n1-c1cccc(C(C)(C)O)n1 (centres unmarked) [Compound 123]
